Measurements from patent US5162336A, “Tetrahydro-pyrido-indoles as cholecystokinin and gastrin antagonists” (Rhone-Poulenc Rorer Pharmaceuticals Inc., priority 1990, dated 1992).

Biological target: T1, CCK-A receptor (Rattus norvegicus, UniProt P30551)
T1 construct: from tissue; host or cells: pancreas membranes of Sprague-Dawley rat
T1 sequence (P30551 1-444): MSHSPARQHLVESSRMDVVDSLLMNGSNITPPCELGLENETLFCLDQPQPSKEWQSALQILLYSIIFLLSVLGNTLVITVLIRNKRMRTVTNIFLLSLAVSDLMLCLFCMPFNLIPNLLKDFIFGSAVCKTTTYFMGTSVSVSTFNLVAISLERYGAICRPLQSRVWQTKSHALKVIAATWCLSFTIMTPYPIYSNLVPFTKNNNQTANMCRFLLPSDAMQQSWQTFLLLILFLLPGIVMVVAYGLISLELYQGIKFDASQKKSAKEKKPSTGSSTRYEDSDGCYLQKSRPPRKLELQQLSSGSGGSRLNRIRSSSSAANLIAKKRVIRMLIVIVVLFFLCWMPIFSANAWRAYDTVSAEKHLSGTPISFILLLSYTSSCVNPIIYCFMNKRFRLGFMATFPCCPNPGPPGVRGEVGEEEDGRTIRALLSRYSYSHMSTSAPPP
Test: CCK-A receptor binding assay (displacement of 3H-L-364,718 from rat pancreas membranes)
Design: species or system Sprague-Dawley rat
Conditions: 3H-L-364,718 0.2 nM, 37° C., 30 min, read-out: In vitro Binding Data IC50 CCK
Procedure: Washer Buffer (for use with Brandel Cell Harvester):
30 liters of 50 mM Tris, ph 7.7: Dissolve 181.7 g. Tris base in 4 1. deionized water at room temperature. Adjust pH to 7.7 with 6 N HCl and Q.S. to 30 1.
50 mM Tris-Cl, 5 mM MgCl2, 5 mM dithio-thretiol, 0.14 mg/ml bacitracin, and 2 mg/ml bovine serum albumin.
1 liter of 5X stock buffer:
30.28 g. Tris base per 800 ml D.I. water 5.09 g. MgCl2 6 H2 O, pH to 7.7 at room temperature with 6N HCl and Q.S. 1 liter, store at 4° C.
250 ml working buffer kept on ice:
50 ml of 5X stock buffer 0.1928 g. dithiothretiol (5 mM), 35 mg bacitracin (0.14 mg/ml), and 0.5 g. BSA (2mg/ml).
Unlabeled L-364,718(nonpeptide ligand):
Unlabeled L-364,718 (300 nM final concentration) is used to define nonspecific binding. A 3 mM solution is made in absolute ethanol and stored in a scintillation vial at -70° C. Aliquots are diluted 100-fold in the assay.
A Sprague-Dawley rat is sacrificed by asphyxiation with carbon dioxide and the pancreas removed. The tissue is immersed in cold wash buffer and carefully trimmed of fat, connective tissue, blood vessels, blotted and weighed. The tissue is homogenized in a Sorvall SS-34 centrifuge tube in 50 volumes of wash buffer using a Polytron at setting 7 for 15 seconds. The tissue is centrifuged (Sorvall SS-34) at 19,000 rpm for 10 min. The supernatant is poured off and the pellet resuspended in sufficient buffer to obtain a contraction of 40 mg tissue wet weight/ml. Separate aliquots (2,3ml) are placed in each of 8 centrifuge tubes and centrifuged as before. The supernatants are poured off and the pellets stored at -70° C. Stored pellets are sufficient for the assay of 160 tubes and are stable for 1-2 months.
During the assay the stored membranes are resuspended in 40 ml of assay buffer by scraping the pellet off the wall of the centrifuge tube and washing it into a teflon-glass homogenizer. Membranes are resuspended by 5 passes with the teflon pestle and the membranes stored on ice until ready for use.
Preparation of Compounds:
Compounds are prepared in DMSO (dimethyl sulfoxide) or in assay buffer. The majority of structures active as CCK antagonists generally require DMSO for complete solubility. Approximately 2-3 mg of compound is weighed directly into a 13×100 mm test tube and sufficient DMSO added to obtain a working stock solution at a concentration 100 fold greater than the highest concentration being tested in the assay. A total of 10 μl of each concentration of drug is added into a final volume of 1 ml to yield a 100 fold dilution of the, working stock solution. Control binding tubes ("totals and nonspecifics") are also treated with 10 μl DMSO.
^3 H-L-364,718 is obtained from New England Nuclear (Cat. #971) and is used as supplied. The final assay concentration of ^3 H-L-364,718 in assay buffer should be 0.2 nM in a final assay volume of 1 ml. ^3 H-L-364,718 (0.2 pmol) is added into the assay in a volume of 25 μl (8 nM working stock solution). The required dilution (usually>1000 fold) is obtained by dividing the working stock concentration into the concentration of the specific lot.
Samples are prepared in triplicate and a "total" (buffer addition) and "nonspecific" (300 nM unlabeled L-364,718) set of tubes included in each set of 24 tubes. The remaining 6 sets of triplicates are used either for screening or IC50 determinations. The order of addition is drugs-DMSO, buffer, unlabeled L-364,718, ^3 H-L-364,718, and to start the assay, membranes.
While tubes are incubating a shaking water bath at 37° C. for 30 min Brandel deposit/dispense filters are presoaked in wash buffer. Following the end of the incubation, sets of 24 tubes are rapidly washed with assay buffer as follows. Assay buffer is added to the incubation tubes to the height of the uppermost cross support in the standard Brandel test tube rack and the contents immediately aspirated. This process is repeated twice more, the filter removed, marked and the next set of 24 tubes processed. […]

SMILES	IC50
CC(C)C[C@H](NC(=O)[C@H]1Cc2c([nH]c3ccccc23)CN1C(=O)Nc1ccc(Cl)c(Cl)c1)C(=O)NCC(N)=O [Example 28]	9 µM
Cc1cccc(NC(=O)N2Cc3[nH]c4ccccc4c3C[C@@H]2C(=O)N[C@@H](CC(C)C)C(N)=O)c1 [Example 39, N-[(3R)-2-(3-methylphenylcarbamoyl)-1,2,3,4-tetrahydro-9H-pyrido[3,4-b]indole-3-carboxy]-L-leucinamide]	> 100 µM
CC(C)C[C@H](NC(=O)[C@H]1Cc2c([nH]c3ccccc23)CN1)C(=O)N[C@@H](CC(=O)OCc1ccccc1)C(N)=O [Example 40]	41 µM
Cc1cccc(NC(=O)N2Cc3[nH]c4ccccc4c3C[C@@H]2C(=O)N[C@@H](CC(C)C)C(=O)N[C@@H](Cc2ccccc2)C(N)=O)c1 [Example 42]	4 µM
CCOC(=O)c1ccc(NC(=O)[C@H]2Cc3c([nH]c4ccccc34)CN2C(=O)Nc2cccc(C)c2)cc1 [Example 43]	37 µM
Cc1cccc(NC(=O)N2Cc3[nH]c4ccccc4c3C[C@@H]2C(=O)N2CCC[C@H]2C(=O)N[C@@H](CC(=O)O)C(N)=O)c1 [Example 44, N-[(3R)-2-(3-methylphenylcarbamoyl)-1,2,3,4-tetrahydro-9H-pyrido[3,4-b]indole-3-carboxyl]-L-prolyl-L-aspartic acid amide]	98 µM
CCCCCN(CCCCC)C(=O)[C@H](CC(=O)O)NC(=O)[C@H]1Cc2c([nH]c3ccccc23)CN1C(=O)Nc1cccc(C)c1 [Example 46, N-[(3R)-2-(3-methylphenylcarbamoyl)-1,2,3,4-tetrahydro-9H-pyrido[3,4-b]indole-3-carboxyl]-L-aspartic acid dipentyl amide]	3.9 µM
Cc1cccc(NC(=O)N2Cc3[nH]c4ccccc4c3C[C@@H]2C(=O)N[C@@H](CC(C)C)C(=O)N[C@@H](CC(N)=O)C(=O)O)c1 [Example 50]	92 µM
Cc1cccc(NC(=O)N2Cc3[nH]c4ccccc4c3C[C@@H]2C(=O)N(C)[C@@H](CC(C)C)C(=O)N[C@@H](CC(=O)O)C(N)=O)c1 [Example 53, N-[(3R)-2-(3-methylphenylcarbamoyl)-1,2,3,4-tetrahydro-9H-pyrido[3,4-b]indole-3-carboxyl]N'-methyl-L-leucine-L-aspartic acid amide]	29 µM
Cc1cccc(C(=O)N2Cc3[nH]c4ccccc4c3C[C@@H]2C(=O)N[C@@H](CC(C)C)C(=O)N[C@@H](CC(=O)O)C(N)=O)c1 [Example 54]	> 100 µM
Cc1cccc(NC(=O)N2Cc3[nH]c4ccccc4c3C[C@@H]2C(=O)NCC(=O)N[C@@H](CC(=O)O)C(N)=O)c1 [Example 56, N-[(3R)-2-(3-methylphenylcarbamoyl)-1,2,3,4-tetrahydro-9H-pyido[3,4-b]indole-3-carboxyl]glycyl-L-aspartic acid amide]	34 µM
Cc1cccc(NC(=O)N2Cc3[nH]c4ccccc4c3C[C@@H]2C(=O)N[C@@H](C)C(=O)N[C@@H](CC(=O)O)C(N)=O)c1 [Example 58]	65 µM
CC(C)C[C@H](NC(=O)[C@H]1Cc2c([nH]c3ccccc23)CN1C(=O)Nc1ccc2ccccc2c1)C(=O)N[C@@H](CC(=O)O)C(N)=O [Example 62]	9.3 µM
CC(C)C[C@H](NC(=O)[C@H]1Cc2c([nH]c3ccccc23)CN1C(=O)Nc1cccc(C(F)(F)F)c1)C(=O)N[C@@H](CC(=O)O)C(N)=O [Example 63]	86 µM
Cc1cccc(NC(=O)N2Cc3[nH]c4ccccc4c3C[C@@H]2C(=O)N[C@@H](COCc2ccccc2)C(=O)N[C@@H](CC(=O)O)C(N)=O)c1 [Example 64]	29 µM

More lines, now with the values ahead:

IC50	SMILES
78 µM	Cc1cccc(NC(=O)N2Cc3[nH]c4ccccc4c3C[C@@H]2C(=O)N[C@H](CC(C)C)C(=O)N[C@H](CC(=O)O)C(N)=O)c1 [Example 45]
35 µM	Cc1cccc(NC(=O)N2Cc3[nH]c4ccccc4c3C[C@H]2C(=O)N[C@H](CC(C)C)C(=O)N[C@H](CC(=O)O)C(N)=O)c1 [Example 49]
100 µM	Cc1cccc(NC(=O)N2Cc3[nH]c4ccccc4c3C[C@@H]2C(=O)N[C@@H](CC(C)C)C(=O)N[C@H](CC(=O)O)C(N)=O)c1 [Example 51, N-[(3R)-2-(3-methylphenylcarbamoyl)-1,2,3,4-tetrahydro-9H-pyrido[3,4-b]indole-3-carboxyl]-L-leucyl-D-aspartic acid amide]
53 µM	Cc1cccc(NC(=O)N2Cc3[nH]c4ccccc4c3C[C@H]2C(=O)N[C@H](CC(C)C)C(=O)N[C@@H](CC(=O)O)C(N)=O)c1 [Example 52]
48 µM	CC(C)C[C@H](NC(=O)[C@H]1Cc2c([nH]c3ccccc23)CN1C(=O)Nc1ccc(Cl)cc1)C(=O)N[C@@H](CC(=O)O)C(N)=O [Example 55, N-[(3R)-2-(4-chlorophenylcarbamoyl)-1,2,3,4-tetrahydro-9H-pyrido[3,4-b]indole-3-carboxyl]-L-leucyl-L-asartic acid amide]
100 µM	Cc1cccc(NC(=O)N2Cc3[nH]c4ccccc4c3C[C@@H]2C(=O)N[C@H](CC(C)C)C(=O)N[C@@H](CC(=O)O)C(N)=O)c1 [Example 57, N-[(3R)-2-(3-methylphenylcarbamoyl)-1,2,3,4-tetrahydro-9H-pyrido[3,4-b]indole-3-carboxyl]-D-leucyl-L-aspartic acid amide]
34 µM	CC(C)C[C@H](NC(=O)[C@H]1Cc2c([nH]c3ccccc23)CN1C(=O)Nc1cc(Cl)cc(Cl)c1)C(=O)N[C@@H](CC(=O)O)C(N)=O [Example 59, N-[(3R)-2-(3,5-dichlorophenylcarbamoyl)-1,2,3,4-tetrahydro-9H-pyrido[3,4-b]indole-3-carboxyl]-L-leucyl-L-aspartic acid amide]
65 µM	Cc1cc(C)cc(NC(=O)N2Cc3[nH]c4ccccc4c3C[C@@H]2C(=O)N[C@@H](CC(C)C)C(=O)N[C@@H](CC(=O)O)C(N)=O)c1 [Example 60, N-[(3R)-2-(3,5-dimethylphenylcarbamoyl)-1,2,3,4-tetrahydro-9H-pyrido[3,4-b]indole-3-carboxyl]-L-leucyl-L-aspartic acid amide]
> 100 µM	COc1cccc(NC(=O)N2Cc3[nH]c4ccccc4c3C[C@@H]2C(=O)N[C@@H](CC(C)C)C(=O)N[C@@H](CC(=O)O)C(N)=O)c1 [Example 61]
> 100 µM	CC(C)C[C@H](NC(=O)[C@H]1Cc2c([nH]c3ccccc23)CN1C(=O)Nc1cccc(F)c1)C(=O)N[C@@H](CC(=O)O)C(N)=O [Example 65]
24 µM	CC(C)C[C@H](NC(=O)[C@H]1Cc2c([nH]c3ccccc23)CN1C(=O)Nc1ccc(Cl)c(Cl)c1)C(=O)N[C@@H](CC(=O)O)C(N)=O [Example 66]
